Experiments:
[1] = tested on: oxaliplatin-induced neuropathy; conditions: chronic oxaliplatin, study D0 to D28; group O; FIG. 3
Procedure: (§1) The animals in the control group received an injection of 5% glucose by the same route, at the same frequency and the same volume.
(§2) These tablets were reduced to a fine powder, and placed in suspension in water containing 0.5% carboxymethylcellulose (Sigma Aldrich, France) in order to obtain a solution at 4 mg/ml. […] The animals in the control group simply received an administration of 0.5% carboxymethylcellulose by the same route, at the same volume and the same frequency.
The Von Frey electronic apparatus (Chaplan et al., 1994) includes a portable sleeve made up of an elastic tip connected to a force sensor. The rats are placed in Plexiglas boxes, arranged on a raised grate. After a habituation period of the rats, the tip is applied perpendicularly to the center of the 5 plantar pads of each of rear paw. […] The intensity of the stimulus, the maximum applied pressure (expressed in grams) is recorded by the device upon withdrawal of the paw.
(§3) The trials were conducted over a period of 3 hours, on all 4 groups of rats. The time t0 corresponds to the moment of the injection.

[2] = tested on: oxaliplatin-induced neuropathy; conditions: chronic oxaliplatin, study D0 to D28; group O; FIG. 4
Procedure: as §1, §2
The rats' tails are submerged in a cold water bath (10° C.). The immersion is maintained until the animal withdraws its tail. The latency of the withdrawal is clocked. Each measurement is done in triplicate.
as §3

[3] = tested on: oxaliplatin-induced neuropathy; conditions: chronic oxaliplatin, day 31; group O; FIG. 5
Procedure: as §1, §2
This test takes place in an arena equipped with a camera in which two animals are placed in one another's presence for 10 minutes. The purpose of this test is to measure the interaction time between the animals. The two studied animals are always part of the same experimental condition group to prevent the behavior of one rat from influencing the other. The rats interact with one another by sniffing, grooming, chasing, etc. An increase in interactions indicates a non-anxious state of the rat, while a decrease and tendency toward prostration indicates an anxious state of the animal. At the beginning of the experiment, the animals are placed in opposite corners of the arena and the handler leaves the room. The arena is cleaned between two experiments to prevent the odors from the previous rats from disrupting the results.
A dose of 5 mg/kg was administered to the animals in groups D and O-D 30 minutes before the test.

[4] = Park et al. 2011; treatment using oxaliplatin and/or cisplatin; cited from earlier work
[5] = tested on: chemically induced neuropathic pain; conditions: Kautio et al. 2008; Mitchell et al. 2006; cited from earlier work

SMILES | sensitivity to mechanical stimulation compared to Sham group [1] | sensitivity to cold stimulation compared to Sham group [2] | anxiety level (social interaction time) vs Sham group [3] | affected patients in whom the neuropathy becomes persistent [4] | relief in patients treated with oxaliplatin [5]
O=C1[O][Pt-2]2([NH2+]C3CCCC[C@H]3[NH2+]2)[O]C1=O (stereo in doubt) [oxaliplatin, cis-[(1R, 2R)-1,2-cyclohexanediamine-N, N′] [oxaloto (2)-O, O′] platinum] | increased sensitivity to mechanical stimulation | increased sensitivity | significantly more anxious than the animals in the Sham group | approximately 80% | –
CN(C)CCC=C1c2ccccc2CCc2ccccc21 [amitriptyline] | – | – | – | – | have not provided any relief
NCC1(CC(=O)O)CCCCC1 [gabapentin] | – | – | – | – | have not provided any relief
